According to US20090215845A1, “Fungicidal mixtures” (priority 2005, published 2009):
Read-outs that look alike come from different tables or passages of the source.

Legend:
Coriolus versicolor = test: MIC, radial hyphal growth on malt extract peptone nutrient agar; format: cell-based; settings: Trametes versicolor
Protocol: (§1) The synergism was then determined using the method described by Kull et al. (F. C. Kull, P. C. Eismann, H. D. Sylvestrowicz, R. L. Mayer, Applied Microbiology 9, 538 to 541, 1961). Here, the following relationships apply:
(§2) Qa=concentration of substance A which corresponds to the MIC
(§3) Qb=concentration of substance B which corresponds to the MIC
(§4) QA=concentration of substance A in the concentration of A/B which suppresses microbial growth
(§5) QB=concentration of substance B in the concentration of A/B which suppresses microbial growth
(§6) SI=1 means the activities are additive
Various concentrations of prochloraz (A), tebuconazole (B) and mixtures (AB) of the two active compounds mentioned were tested against the wood-destroying Basidiomycetes Coriolus versicolor. Mycelium pieces were punched out of a colony of the wood-destroying organism and incubated at 26° C. on a nutrient agar which contained malt extract peptone. The radial growth of the hypha with and without added active compound was then compared. The minimum inhibitory concentration (MIC) stated below is the lowest concentration of active compound at which the radial growth is suppressed completely.

Trichurus spiralis = test: MIC on nutrient agar media against soft-rot pathogen; format: cell-based
Protocol: as §1, §2, §3, §4, §5, §6
Various concentrations of prochloraz (A), tebuconazole (B) and mixtures of the two active compounds mentioned (AB) were tested against the soft-rot pathogen Trichurus spiralis on nutrient agar media. The minimum inhibitory concentration (MIC) refers to the value of the active compound or the active compound mixture in question where no growth could be observed.

[1] = test system: microorganisms in biologically active soil; test: Soil burial of treated cotton sailcloth (DIN ENV 807), tear resistance; settings: cloth drenched with 800 ppm single active compound in ethanol; 4 weeks in biologically active soil
Protocol: Untreated cotton sailcloth consisting of cellulose (500 g/m^2) was drenched with a solution of 800 ppm of prochloraz (A) and 800 ppm of tebuconazole (B) and a mixture (AB) comprising 200 ppm of prochloraz and 200 ppm of tebuconazole in ethanol. The samples were dried at 23° C. and 50% relative atmospheric humidity for 7 days and incorporated into biologically active soil according to DIN ENV 807. After 4 weeks, tear resistance of the cotton cloth was determined as a measure for the protection against destruction by microorganisms achieved by the active compounds.

blueing fungi = settings: J. A. Drysdale et al., New Zealand Journal of Forestry Science 1982; cited from earlier work

Row | Compound | MIC (Coriolus versicolor) [µg/mL] | MIC (Trichurus spiralis) [µg/mL] | tear resistance of the cotton cloth [1] | activity against blueing fungi (blueing fungi) | MIC (Coriolus versicolor; Coriolus versicolor, 26° C., malt extract peptone agar, lowest concentration at which radial growth is suppressed completely, read-out: MIC) [µg/mL] | MIC (Trichurus spiralis; nutrient agar, concentration where no growth could be observed, read-out: MIC) [µg/mL]
1 | CCCN(CCOc1c(Cl)cc(Cl)cc1Cl)C(=O)n1ccnc1 [A, N-propyl-N-[2-(2,4,6-trichlorophenoxy)ethyl]imidazole-1-carboxamide] | 6 | 5 | easy to tear | insufficiently active |  | 
2 | CC(C)(C)C(O)(CCc1ccc(Cl)cc1)Cn1cncn1 (stereo not shown) [B, tebuconazole] |  |  | easy to tear |  | 0.3 | 200
